Data: patent publication US20190184364A1, “FRAGRANCE COMPOSITIONS CONTAINING MICROCAPSULES” (INTERNATIONAL FLAVORS & FRAGRANCES INC., priority 2016, published 2019)
In brackets after ≈: the same amount, converted by molar mass.

What was measured:
insect bites = settings: DEET at 100%; cited from earlier work
[1] = Water solubility of core solvents; format: physicochemical
[2] = cited from earlier work; for δD: Hansen dispersion value; for δH: Hansen h-bonding value; for δP: Hansen polar value

| SMILES | hours of protection against insect bites (insect bites) | solubility [1] | δD [2] | δH [2] | δP [2] |
| --- | --- | --- | --- | --- | --- |
| CCN(CC)C(=O)c1cccc(C)c1 [DEET, N,N-Diethyl-meta-toluamide] | up to 12 hours |  |  |  |  |
| CCCCCCCCCCCCCC(=O)OC(C)C [isopropyl myristate] |  | < 0.0001 mg/mL | 16 | 2.7 | 2.1 |
| CC(=O)OCC(COC(C)=O)OC(C)=O [triacetin] |  | 21.5 mg/mL (≈ 98.6 mM) | 16.4 | 9.6 | 5.7 |
